Entries after “also recorded” stand apart in the source; their conditions may differ. Where a SMILES comes first, the peptide text is derived from it.
Assays:
trypsin = test: Effect of enzymes on antibacterial activity: trypsin; type: in vitro ADME
Source text: (§1) Furthermore, the antibacterial activity of pantocin wh-1 also retained nearly 100% of the initial activity within a broad pH range (pH 2–12).
(§2) The effect of various enzymes, pH, and temperature on pantocin wh-1 activity was detected as described by J.-M. Chobert et al. with a slight modification. Proteinase K, trypsin, catalase, lysozyme, DNAse, and RNAse were used to test the antibacterial activity of pantocinwh-1. To analyze the effect of different pH values on the antibacterial activity of pantocin wh-1, the sample of pantocin wh-1 was exposed to buffer with a pH value of 2–12 for 1 h at 25 °C. The effect of temperature on the anti-mycobacterial activity of pantocin wh-1 was determined by incubating pantocin wh-1 at 50 °C and 100 °C for 60 min, as well as at 121 °C for 15 min, and then detecting the bactericidal activity against M. smegmatis mc^2 155.

Bacillus cereus = test: Antimicrobial spectrum, microporous dilution method; type: cell-based; parameters: key: -: no inhibitory activity; +: Inhibit the growth of less than 10% amount of the initial bacteria; ++: Inhibit the growth of less than 50% amount of the initial bacteria; +++: Inhibit the growth of initial bacteria completely; settings: medium LB
Description: (§3) In this paper, the microporous dilution method was used to detect the antibacterial spectrum of pantocin wh-1 against Gram-negative and -positive bacteria. […] The time kill studies were determined over 8 h with M. smegmatis mc^2 155 being exposed to 0.5, 1, 2, or 4 × MIC of pantocin wh-1. […] At 2 × MIC and 4 × MIC, pantocin wh-1 caused bacterial eradication was completed approximately after 4 h.
(§4) The antibacterial activity of the pantocin wh-1 was detected by the microscale optical density assay (MODA) method. Briefly, 90 μL of the dilutions of pantocin wh-1, 100 μL 2 × 7H9 medium, and 10 μL of a log phase indicator strain were co-incubated in the 96-well plate at 37 °C for 48 h. For control groups, 90 μL of the dilutions of pantocin wh-1 were replaced by an equal volume of sterile water. After incubation, the 96 well microplate was measured by a microplate reader at a 600 nm wavelength (Biotek synergyH1, Biotek, Winooski, VT, USA). The amount of pantocin wh-1 produced by P. dispersa W18 was determined using two fold dilutions. […] The results were expressed in AU/mL. The MIC was defined as the last dilution of pantocin wh-1 sufficient to prevent indicator strain growth in vitro.

S. aureus 21A = test: as above; type: cell-based; parameters: key: -: no inhibitory activity; +: Inhibit the growth of less than 10% amount of the initial bacteria; ++: Inhibit the growth of less than 50% amount of the initial bacteria; +++: Inhibit the growth of initial bacteria completely; settings: medium LB
Description: as §3, §4

S. aureus B31 = test: as above; type: cell-based; parameters: key: -: no inhibitory activity; +: Inhibit the growth of less than 10% amount of the initial bacteria; ++: Inhibit the growth of less than 50% amount of the initial bacteria; +++: Inhibit the growth of initial bacteria completely; settings: S. aureus B31, medium LB
Description: as §3, §4

S. aureus B30 = test: as above; type: cell-based; parameters: key: -: no inhibitory activity; +: Inhibit the growth of less than 10% amount of the initial bacteria; ++: Inhibit the growth of less than 50% amount of the initial bacteria; +++: Inhibit the growth of initial bacteria completely; settings: S. aureus B30, medium LB
Description: as §3, §4

Dysgalactiae = test: as above; type: cell-based; parameters: key: -: no inhibitory activity; +: Inhibit the growth of less than 10% amount of the initial bacteria; ++: Inhibit the growth of less than 50% amount of the initial bacteria; +++: Inhibit the growth of initial bacteria completely; settings: medium BHI
Description: as §3, §4

Feces Enterococcus = test: as above; type: cell-based; parameters: key: -: no inhibitory activity; +: Inhibit the growth of less than 10% amount of the initial bacteria; ++: Inhibit the growth of less than 50% amount of the initial bacteria; +++: Inhibit the growth of initial bacteria completely; settings: medium BHI
Description: as §3, §4

lysozyme = test: Effect of enzymes on antibacterial activity: lysozyme; type: in vitro ADME
Source text: as §1, §2

S. suis = test: Antimicrobial spectrum, microporous dilution method; type: cell-based, Streptococcus suis
Description: as §3, §4

proteinase K = proteinase K (Parengyodontium album, UniProt P06873); test: Effect of enzymes on antibacterial activity: proteinase K; type: in vitro ADME
Source text: as §1, §2

[1] = Effect of heat on antibacterial activity; type: physicochemical; settings: for Residual activity: compared with antimicrobial activity before the treatment
Source text: as §1
as §2, with “[…],” for “anti-mycobacterial activity of pantocin wh-1 was determined by incubating pantocin wh-1 at 50 °C and 100 °C for 60 min,”

M. tuberculosis H37Ra = type: cell-based, Mycobacterium tuberculosis; parameters: key: -: no inhibitory activity; +: Inhibit the growth of less than 10% amount of the initial bacteria; ++: Inhibit the growth of less than 50% amount of the initial bacteria; +++: Inhibit the growth of initial bacteria completely; settings: M. tuberculosis Ra, medium 7H9

Chain of proteinase K (P06873 106-384): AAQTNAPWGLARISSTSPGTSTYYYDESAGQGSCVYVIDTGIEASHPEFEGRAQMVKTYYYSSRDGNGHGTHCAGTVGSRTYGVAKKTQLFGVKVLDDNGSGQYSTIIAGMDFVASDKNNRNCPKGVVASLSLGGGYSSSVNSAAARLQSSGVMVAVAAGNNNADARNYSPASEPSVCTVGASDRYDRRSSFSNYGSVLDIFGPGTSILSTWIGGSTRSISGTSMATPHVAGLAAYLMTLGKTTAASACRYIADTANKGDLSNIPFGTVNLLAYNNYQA

CSCC[C@@H]1NC(=O)[C@H](C(C)C)NC(=O)[C@H](Cc2c[nH]c3ccccc23)NC(=O)[C@H](C(C)C)NC(=O)[C@H](C)NC(=O)[C@H](CS)NC(=O)[C@H](CC(N)=O)NC(=O)[C@H](Cc2ccccc2)NC(=O)CNC(=O)[C@H](Cc2ccc(O)cc2)NC(=O)CNC(=O)[C@H](Cc2ccccc2)NC(=O)[C@H](C(C)C)NC(=O)[C@H](Cc2ccc(O)cc2)NC(=O)[C@H](CS)NC(=O)[C@H](Cc2c[nH]c3ccccc23)NC1=O [pantocin wh-1] (cyclo(AVWVMWCYVFGYGFNC))
inhibitory activity after trypsin (trypsin; trypsin): not completely inactivated; also recorded: partial sensitivity
Residual activity (trypsin; trypsin treatment, compared with antimicrobial activity before the treatment): 27%
Inhibition activity (Bacillus cereus): -
Inhibition activity (S. aureus 21A): -
Inhibition activity (S. aureus B31): -
Inhibition activity (S. aureus B30): -
Inhibition activity (Dysgalactiae): -
Inhibition activity (Feces Enterococcus): -
antibacterial activity after lysozyme (lysozyme; lysozyme): insensitive
Residual activity (lysozyme; lysozyme treatment, compared with antimicrobial activity before the treatment): 100%
Inhibition activity (S. suis; S. suis, medium BHI): + (Inhibit the growth of less than 10% amount of the initial bacteria)
inhibitory activity (S. suis; Streptococcus suis): partial inhibitory activity
inhibitory activity after proteinase K (proteinase K): inactivated completely
Residual activity ([1]; Heat 50℃/ 30 min): 100%
Residual activity ([1]; Heat 100℃/ 30 min): 90%
Residual activity ([1]; Heat 121℃/ 15 min): 72%
retained activity ([1]; autoclaving at 121 °C for 30 min): 72%
heat stability ([1]; incubation at 100 °C for 30 min): heat stable
Inhibition activity (M. tuberculosis H37Ra): +++
activity after pepsin (pepsin): not completely inactivated
